Reference: patent publication US12559506B2, “Indazole based compounds and associated methods of use” (Arvinas Operations, Inc., priority 2021, dated 2026)
Where two headings read alike, the source gives them in different places.

What was measured:
Type in all cases: cell-based
[1] = target: T1, LRRK2 (endogenous, HiBit tagged) (Homo sapiens, UniProt Q5S007); test: Endogenous LRRK2 degradation assay, endogenous gene C-terminally HiBit-tagged in HEK293 cells (Nano-Glo Dual Luciferase); conditions: endogenous HiBit-tagged LRRK2 in HEK293 cells, 24 hours; for Dmax: read-out: **Endogenous WT Dmax (%); for DC50: read-out: *Endogenous WT DC50
T1 construct: endogenous in cells; host or cells: HEK293 cells with HiBit knock-in at the endogenous LRRK2 locus, stably expressing firefly luciferase
T1 sequence (Q5S007 whole entry): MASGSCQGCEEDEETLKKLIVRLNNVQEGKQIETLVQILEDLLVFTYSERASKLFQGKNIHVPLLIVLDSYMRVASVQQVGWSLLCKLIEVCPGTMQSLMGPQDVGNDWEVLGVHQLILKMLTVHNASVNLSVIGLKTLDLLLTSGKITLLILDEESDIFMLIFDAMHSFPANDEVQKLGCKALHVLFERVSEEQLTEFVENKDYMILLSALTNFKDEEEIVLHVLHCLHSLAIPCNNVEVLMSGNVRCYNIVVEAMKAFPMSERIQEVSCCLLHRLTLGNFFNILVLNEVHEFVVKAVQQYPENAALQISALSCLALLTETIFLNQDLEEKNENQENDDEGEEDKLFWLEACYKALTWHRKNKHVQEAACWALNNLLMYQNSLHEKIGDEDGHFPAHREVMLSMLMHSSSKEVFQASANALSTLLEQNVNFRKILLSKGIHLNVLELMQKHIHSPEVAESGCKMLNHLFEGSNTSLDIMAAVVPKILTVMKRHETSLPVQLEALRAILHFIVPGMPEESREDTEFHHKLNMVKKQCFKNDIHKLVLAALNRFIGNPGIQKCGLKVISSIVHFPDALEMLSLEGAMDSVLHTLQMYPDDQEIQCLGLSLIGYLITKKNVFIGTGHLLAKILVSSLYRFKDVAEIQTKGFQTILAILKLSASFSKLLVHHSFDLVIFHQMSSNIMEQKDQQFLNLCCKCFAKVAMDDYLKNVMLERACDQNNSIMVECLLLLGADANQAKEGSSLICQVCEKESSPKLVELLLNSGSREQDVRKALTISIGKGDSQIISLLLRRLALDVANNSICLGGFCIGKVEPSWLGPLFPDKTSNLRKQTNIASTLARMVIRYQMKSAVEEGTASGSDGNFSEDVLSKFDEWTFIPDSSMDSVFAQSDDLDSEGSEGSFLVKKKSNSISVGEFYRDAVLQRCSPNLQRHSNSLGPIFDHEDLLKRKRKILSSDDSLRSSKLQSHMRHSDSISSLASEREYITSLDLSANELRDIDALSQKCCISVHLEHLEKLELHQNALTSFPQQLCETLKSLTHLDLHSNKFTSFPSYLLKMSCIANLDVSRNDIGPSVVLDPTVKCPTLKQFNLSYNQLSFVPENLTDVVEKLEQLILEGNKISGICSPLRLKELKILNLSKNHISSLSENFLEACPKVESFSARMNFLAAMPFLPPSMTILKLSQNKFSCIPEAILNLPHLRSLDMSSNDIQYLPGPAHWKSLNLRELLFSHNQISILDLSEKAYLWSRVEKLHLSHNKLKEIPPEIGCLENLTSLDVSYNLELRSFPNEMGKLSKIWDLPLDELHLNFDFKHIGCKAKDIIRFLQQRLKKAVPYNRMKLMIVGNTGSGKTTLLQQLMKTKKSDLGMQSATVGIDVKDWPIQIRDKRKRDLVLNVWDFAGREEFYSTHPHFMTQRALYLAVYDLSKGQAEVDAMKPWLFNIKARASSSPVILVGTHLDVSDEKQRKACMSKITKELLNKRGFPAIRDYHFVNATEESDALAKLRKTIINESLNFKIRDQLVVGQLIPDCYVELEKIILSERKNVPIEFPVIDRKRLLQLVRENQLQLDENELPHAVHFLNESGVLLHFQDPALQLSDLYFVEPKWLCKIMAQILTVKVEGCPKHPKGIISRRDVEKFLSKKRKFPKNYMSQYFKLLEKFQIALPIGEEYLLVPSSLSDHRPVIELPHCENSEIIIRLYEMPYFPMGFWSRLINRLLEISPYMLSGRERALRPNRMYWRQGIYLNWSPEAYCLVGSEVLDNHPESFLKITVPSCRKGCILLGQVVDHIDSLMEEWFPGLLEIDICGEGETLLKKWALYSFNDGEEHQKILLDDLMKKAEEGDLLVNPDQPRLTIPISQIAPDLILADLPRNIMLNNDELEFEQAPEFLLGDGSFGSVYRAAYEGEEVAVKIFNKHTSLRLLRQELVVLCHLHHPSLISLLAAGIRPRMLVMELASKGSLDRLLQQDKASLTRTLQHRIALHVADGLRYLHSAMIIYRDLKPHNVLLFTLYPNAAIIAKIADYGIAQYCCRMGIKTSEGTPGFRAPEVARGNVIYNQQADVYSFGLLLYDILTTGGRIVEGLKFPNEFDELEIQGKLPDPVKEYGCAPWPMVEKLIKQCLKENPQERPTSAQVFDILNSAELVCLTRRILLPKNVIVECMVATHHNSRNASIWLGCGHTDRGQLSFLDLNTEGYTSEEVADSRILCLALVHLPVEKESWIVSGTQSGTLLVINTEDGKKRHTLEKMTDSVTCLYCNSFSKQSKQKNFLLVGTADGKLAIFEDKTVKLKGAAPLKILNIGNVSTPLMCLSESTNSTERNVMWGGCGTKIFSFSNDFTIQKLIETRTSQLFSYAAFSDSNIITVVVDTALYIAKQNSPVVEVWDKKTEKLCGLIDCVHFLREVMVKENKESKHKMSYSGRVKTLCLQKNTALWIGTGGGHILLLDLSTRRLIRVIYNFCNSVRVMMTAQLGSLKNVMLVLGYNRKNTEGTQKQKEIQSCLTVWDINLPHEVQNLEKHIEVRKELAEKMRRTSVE
Procedure, shortened: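 LRRK2-HiBit quantified via Nano-Glo Dual Luciferase in HEK293 knock-in cells co-expressing firefly luciferase, after 24 h exposure to compound (1 μM final top, 1:3, 11 points). Values normalised to DMSO median per plate and curve-fitted; Alamar Blue viability run alongside.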

[2] = target: T2, G2019S LRRK2 (Homo sapiens, UniProt Q5S007, G2019S); test: LRRK2 degradation assay, HiBit-tagged G2019S LRRK2 expressed from plasmid in HEK293 cells (Nano-Glo Dual-Luciferase); conditions: 24 hours
T2 construct: expressed in transfected cells; host or cells: HEK293 (ATCC CRL-1573), transient transfection, mammalian expression vector with ubiquitin promoter
T2 sequence (Q5S007 whole entry G2019S): as the sequence (Q5S007 whole entry) above, with G2019S counted along it
Procedure, shortened: (§1)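 Degradation read as Nano-Glo HiBiT signal over firefly luciferase (cell number/viability) after 24 h compound exposure of transiently transfected HEK293 expressing C-terminally HiBiT-tagged wildtype or G2019S LRRK2. Data as % DMSO; DC50/Dmax fitted per plate, triplicate plates repeated twice.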

[3] = target: T3, wildtype LRRK2 (Homo sapiens, UniProt Q5S007); test: LRRK2 degradation assay, HiBit-tagged wildtype LRRK2 expressed from plasmid in HEK293 cells (Nano-Glo Dual-Luciferase); conditions: 24 hours; for Dmax: read-out: **WT Dmax (%); for DC50: read-out: *WT DC50
T3 construct: expressed in transfected cells; host or cells: HEK293 (ATCC CRL-1573), transient transfection, mammalian expression vector with ubiquitin promoter
T3 sequence (Q5S007 whole entry): as the sequence (Q5S007 whole entry) above
Procedure, shortened: as §1

[4] = HiBit-tagged G2019S LRRK2 in HEK293 cells
[5] = HiBit-tagged wildtype LRRK2 in HEK293 cells
[6] = HiBit-tagged G2019S LRRK2, HEK293 cells
[7] = HiBit-tagged wildtype LRRK2, HEK293 cells

Row | Compound | Dmax [1] | DC50 [1] | DC50 [2, 4] | Dmax [2, 4] | Dmax [3, 5] | DC50 [3, 5] | DC50 [2, 6] | Dmax [2, 6] | DC50 [3, 7] | Dmax [3, 7]
1 | C[C@H]1CN(c2cc(-c3[nH]nc4ccc(OC5(C)CC5)cc34)ncn2)CCN1CC1CCN(CC2CCN(c3cccc4c3C(=O)N(C3CCC(=O)NC3=O)C4=O)CC2)CC1 (stereo partly drawn) [Compound 137, 2-(2,6-dioxo-3-piperidyl)-4-[4-[[4-[[(2S)-2-methyl-4-[6-[5-(1-methylcyclopropoxy)-2H-indazol-3-yl]pyrimidin-4-yl]piperazin-1-yl]methyl]-1-piperidyl]methyl]-1-piperidyl]isoindoline-1,3-dione] | ≥ 70% | 10 to 50 nM | < 10 nM | ≥ 70% | ≥ 70% | < 10 nM |  |  |  | 
2 | CC1(Oc2ccc3n[nH]c(-c4cc(N5CC(OC6CCN(CC7CCN(c8ccc9c(c8)C(=O)N(C8CCC(=O)NC8=O)C9=O)CC7)CC6)C5)ncn4)c3c2)CC1 (stereo not drawn) [Compound 130, 2-(2,6-dioxo-3-piperidyl)-5-[4-[[4-[1-[6-[5-(1-methylcyclopropoxy)-2H-indazol-3-yl]pyrimidin-4-yl]azetidin-3-yl]oxy-1-piperidyl]methyl]-1-piperidyl]isoindoline-1,3-dione] | ≥ 70% | < 10 nM | < 10 nM | 50 to 70% | 50 to 70% | < 10 nM |  |  |  | 
3 | C[C@H]1CN(c2cc(-c3n[nH]c4ccc(OC5(C)CC5)cc34)ncn2)CCN1CC1(F)CCN(CC2CCN(c3ccc4c(c3)C(=O)N(C3CCC(=O)NC3=O)C4=O)CC2)CC1 (stereo partly drawn) [Compound 69, 2-(2,6-dioxo-3-piperidyl)-5-[4-[[4-fluoro-4-[[(2S)-2-methyl-4-[6-[5-(1-methylcyclopropoxy)-1H-indazol-3-yl]pyrimidin-4-yl]piperazin-1-yl]methyl]-1-piperidyl]methyl]-1-piperidyl]isoindoline-1,3-dione] | 50 to 70% | < 10 nM | < 10 nM | < 50% | < 50% | < 10 nM |  |  |  | 
4 | C[C@H]1CN(c2cc(-c3[nH]nc4ccc(OC5(C)CC5)cc34)ncn2)CCN1CCC1(F)CCN(CC2CCN(c3ccc4c(c3)CN(C3CCC(=O)NC3=O)C4=O)CC2)CC1 (stereo partly drawn) [Compound 64, 3-[5-[4-[[4-fluoro-4-[2-[(2S)-2-methyl-4-[6-[5-(1-methylcyclopropoxy)-2H-indazol-3-yl]pyrimidin-4-yl]piperazin-1-yl]ethyl]-1-piperidyl]methyl]-1-piperidyl]-1-oxo-isoindolin-2-yl]piperidine-2,6-dione] | ≥ 70% | < 10 nM | < 10 nM | ≥ 70% | ≥ 70% | < 10 nM |  |  |  | 
5 | CC1(Oc2ccc3[nH]nc(-c4cc(N5CCN(C[C@H]6CC(=O)N(CC7CCN(c8ccc9c(c8)C(=O)N(C8CCC(=O)NC8=O)C9=O)CC7)C6)CC5)ncn4)c3c2)CC1 (single isomer, unassigned) [Compound 120] | 50 to 70% | < 10 nM | < 10 nM | 50 to 70% | 50 to 70% | < 10 nM |  |  |  | 
6 | C[C@H]1CN(c2cc(-c3n[nH]c4ccc(OC5(C)CC5)cc34)ncn2)CCN1CCC1(F)CCN(CC2CCN(c3ccc4c(c3)C(=O)N(C3CCC(=O)NC3=O)C4=O)CC2)CC1 (stereo partly drawn) [Compound 52, 2-(2,6-dioxo-3-piperidyl)-5-[4-[[4-fluoro-4-[2-[(2S)-2-methyl-4-[6-[5-(1-methylcyclopropoxy)-1H-indazol-3-yl]pyrimidin-4-yl]piperazin-1-yl]ethyl]-1-piperidyl]methyl]-1-piperidyl]isoindoline-1,3-dione] | ≥ 70% | 10 to 50 nM | < 10 nM | 50 to 70% | 50 to 70% | < 10 nM |  |  |  | 
7 | CC1(Oc2ccc3n[nH]c(-c4cc(N5CCC(COC6CCN(CC7CCN(c8ccc9c(c8)C(=O)N(C8CCC(=O)NC8=O)C9=O)CC7)CC6)CC5)ncn4)c3c2)CC1 (stereo not drawn) [Compound 61, 2-(2,6-dioxo-3-piperidyl)-5-[4-[[4-[[1-[6-[5-(1-methylcyclopropoxy)-2H-indazol-3-yl]pyrimidin-4-yl]-4-piperidyl]methoxy]-1-piperidyl]methyl]-1-piperidyl]isoindoline-1,3-dione] | ≥ 70% | < 10 nM | < 10 nM | ≥ 70% | ≥ 70% | < 10 nM |  |  |  | 
8 | CC1(Oc2ccc3n[nH]c(-c4cc(N5CCC(CN6CCN(CC7CCN(c8ccc9c(c8)CN(C8CCC(=O)NC8=O)C9=O)CC7)CC6)CC5)ncn4)c3c2)CC1 (stereo not drawn) [Compound 112, 3-[5-[4-[[4-[[1-[6-[5-(1-methylcyclopropoxy)-2H-indazol-3-yl]pyrimidin-4-yl]-4-piperidyl]methyl]piperazin-1-yl]methyl]-1-piperidyl]-1-oxo-isoindolin-2-yl]piperidine-2,6-dione] | ≥ 70% | < 10 nM | < 10 nM | ≥ 70% | ≥ 70% | < 10 nM |  |  |  | 
9 | CC1(Oc2ccc3[nH]nc(-c4cc(N5CCC(O[C@H]6CC[C@H](OC7CCN(c8ccc9c(c8)C(=O)N(C8CCC(=O)NC8=O)C9=O)CC7)CC6)CC5)ncn4)c3c2)CC1 (stereo partly drawn) [Compound 108, 2-(2,6-dioxo-3-piperidyl)-5-[4-[4-[[1-[6-[5-(1-methylcyclopropoxy)-1H-indazol-3-yl]pyrimidin-4-yl]-4-piperidyl]oxy]cyclohexoxy]-1-piperidyl]isoindoline-1,3-dione] |  |  | 10 to 50 nM | < 50% | 50 to 70% | 10 to 50 nM |  |  |  | 
10 | C[C@H]1CN(c2cc(-c3n[nH]c4ccc(OC5(C)CC5)cc34)ncn2)CCN1CC1CCN(CC2CCN(c3cc4c(cc3F)C(=O)N(C3CCC(=O)NC3=O)C4=O)CC2)CC1 (stereo partly drawn) [Compound 73, 2-(2,6-dioxo-3-piperidyl)-5-fluoro-6-[4-[[4-[[(2S)-2-methyl-4-[6-[5-(1-methylcyclopropoxy)-2H-indazol-3-yl]pyrimidin-4-yl]piperazin-1-yl]methyl]-1-piperidyl]methyl]-1-piperidyl]isoindoline-1,3-dione] |  |  | < 10 nM | < 50% | < 50% | < 10 nM |  |  |  | 
11 | CC1(Oc2ccc3n[nH]c(-c4cc(N5CCC(Cc6ccc(CC7CCN(c8ccc9c(c8)C(=O)N(C8CCC(=O)NC8=O)C9=O)CC7)cc6)CC5)ncn4)c3c2)CC1 (stereo not drawn) [Compound 171, 2-(2,6-dioxo-3-piperidyl)-5-[4-[[4-[[1-[6-[5-(1-methylcyclopropoxy)-2H-indazol-3-yl]pyrimidin-4-yl]-4-piperidyl]methyl]phenyl]methyl]-1-piperidyl]isoindoline-1,3-dione] |  |  |  |  |  |  | ≥ 100 nM | < 50% | ≥ 100 nM | 
12 | C[C@H]1CN(c2cc(-c3[nH]nc4ccc(OC5(C)CC5)cc34)ncn2)CCN1CC1CCN(CC2CCN(c3ccc4c(c3)CN(C3CCC(=O)NC3=O)C4=O)CC2)CC1 (stereo partly drawn) [Compound 109, 3-[5-[4-[[4-[[(2S)-2-methyl-4-[6-[5-(1-methylcyclopropoxy)-2H-indazol-3-yl]pyrimidin-4-yl]piperazin-1-yl]methyl]-1-piperidyl]methyl]-1-piperidyl]-1-oxo-isoindolin-2-yl]piperidine-2,6-dione] |  |  | < 10 nM | 50 to 70% | 50 to 70% | < 10 nM |  |  |  | 
13 | CC1(Oc2ccc3n[nH]c(-c4cc(N5CCN(CC6(F)CCN(CC7CN(c8ccc9c(c8)C(=O)N(C8CCC(=O)NC8=O)C9=O)C7)CC6)CC5)ncn4)c3c2)CC1 (stereo not drawn) [Compound 135, 2-(2,6-dioxo-3-piperidyl)-5-[3-[[4-fluoro-4-[[4-[6-[5-(1-methylcyclopropoxy)-2H-indazol-3-yl]pyrimidin-4-yl]piperazin-1-yl]methyl]-1-piperidyl]methyl]azetidin-1-yl]isoindoline-1,3-dione] |  |  | < 10 nM | 50 to 70% | < 50% | < 10 nM |  |  |  | 
14 | CC1(Oc2ccc3[nH]nc(-c4ccnc(N5CCN(CC6CCN(C(=O)C7CCN(c8ccc9c(c8)C(=O)N(C8CCC(=O)NC8=O)C9=O)CC7)CC6)CC5)c4)c3c2)CC1 (stereo not drawn) [Compound 91, 2-(2,6-dioxopiperidin-3-yl)-5-(4-{4-[(4-{4-[5-(1-methylcyclopropoxy)-1H-indazol-3-yl]pyridin-2-yl}piperazin-1-yl)methyl]piperidine-1-carbonyl}piperidin-1-yl)-2,3-dihydro-1H-isoindole-1,3-dione] |  |  | < 10 nM | 50 to 70% | 50 to 70% | < 10 nM |  |  |  | 
15 | C[C@H]1CN(c2cc(-c3[nH]nc4ccc(OC5(C)CC5)cc34)ncn2)CCN1Cc1cn(CC2CCN(c3ccc4c(c3)C(=O)N(C3CCC(=O)NC3=O)C4=O)CC2)nn1 (stereo partly drawn) [Compound 168, 2-(2,6-dioxo-3-piperidyl)-5-[4-[[4-[[(2S)-2-methyl-4-[6-[5-(1-methylcyclopropoxy)-2H-indazol-3-yl]pyrimidin-4-yl]piperazin-1-yl]methyl]triazol-1-yl]methyl]-1-piperidyl]isoindoline-1,3-dione] |  |  |  |  |  |  | 10 to 50 nM | < 50% | < 10 nM | < 50%
